In patent publication US20050106305A1, “Beverage compositions comprising monatin and methods of making same” (Cargill, Inc., priority 2003, published 2005):
Where two headings read alike, the source gives them in different places. Where a SMILES comes first, the peptide text is derived from it.

How the values were obtained:
[1] = Taste profiling of lemon/lime carbonates and colas; type: in vivo; settings: HFCS 10%, aspartame 500 ppm, sucralose 200 ppm, blends 30.8 ppm/5.0%; for Average Score: score 1, poor-5, good, sucrose 10%
Experimental: Cola and lemon/lime beverages were prepared using the following formulations and sweetened with sucrose, HFCS (55% fructose), aspartame, sucralose, monatin (racemic mix described in Example 14), monatin/sucrose, or monatin/HFCS. One part of syrup was added to 5.5 parts carbonated water and evaluated.
Assessments were carried out ‘double blind’ by a panel of trained tasters. The sucrose-sweetened product was identified as the control and all other products randomly coded. Panelists were asked to assess the randomly coded sample relative to the control for the following attributes:
Panelists also were asked assign a score (1; poor-5; good) for the quality of the sweetener system. A summary of the comments generated together with the average score awarded is presented in Tables 12 and 13 for lemon/lime carbonates and colas, respectively. […] Blends of monatin/carbohydrate rated higher. In the cola, monatin was similar to aspartame.

[2] = Sensory evaluation of soft drinks (lemon/lime, orangeade, cola); type: in vivo; settings: Lemon/lime soft drink; aspartame 500 ppm, sucralose 200 ppm, R,R monatin 42 ppm
Experimental: Beverages (cola, lemon-lime and orange) were formulated and sweetened with aspartame, sucralose or R,R monatin. Qualitative evaluation was carried out.
The term “throw” refers to dilution in water. For example, a throw of “1+4” means 1 part concentrate formulation to 4 parts water. Thus, if a concentrate formulation includes 0.021% wt/vol (i.e., 210 ppm) of R,R monatin, for example, a throw of 1+4 makes a diluted beverage containing 42 ppm (210 ppm/5) R,R monatin.
Final ready-to-drink beverages (after throw) contained sweetener concentrations as follows:
Evaluation of these soft drinks was carried out by a panel (n=6) of assessors who evaluated each set of drinks on separate tasting occasions.

[3] = Sensory stability of monatin and aspartame at pH 2.5, 3.0, 4.0 at 40° C.; type: physicochemical; settings: for Rate constant (k) of sweetness loss / half-life: pseudo-first order assumed; for SEV / Retention of Sweetness: stored 40° C., monatin ~55 ppm, aspartame 400 ppm; for half-life: phosphate/citrate buffer, read-out: Half-life (t½) of sweetness loss (converted)
Experimental: The sensory stability of monatin solutions prepared at pH 2.5, 3.0 and 4.0 and stored at 40° C. was monitored for 100 days. Loss of sweetness from these solutions was compared with the losses of sweetness from aspartame solutions prepared and stored under identical conditions.
The sensory stability of monatin (8% SEV, ˜55 ppm, synthetic blend containing approximately 96% of the 2R,4R/2S, 4S enantiometric pair and 4% of the 2R,4S/2S,4R enantiometric pair) in phosphate/citrate buffers having a pH of 2.5, 3.0, and 4.0 was examined after storage at 40° C. The stability of monatin was compared to that of aspartame (400 ppm) in the same buffers. Three sucrose reference solutions were prepared in the same phosphate/citrate buffers as the monatin and aspartame solutions. All prepared solutions were stored in the dark.
Buffer compositions: pH 2.5 Phosphoric acid (75% solution) 0.127% (w/v) Tri-sodium citrate monohydrate 0.005% (w/v) • pH 3.0 Phosphoric acid (75% solution) 0.092% (w/v) Tri-sodium citrate monohydrate 0.031% (w/v) • pH 4.0 Phosphoric acid (75% solution) 0.071% (w/v) Tri-sodium citrate monohydrate 0.047% (w/v)
The sweetness of each sweetener relative to sucrose was assessed in duplicate by a panel (n=8) of trained sensory evaluators experienced in the sweetness estimation procedure. All samples (in the same buffers) were served in duplicate at a temperature of 22° C.±1° C. Monatin (test) solutions, coded with 3 digit random number codes were presented individually to panelists, in random order. Sucrose reference standards, ranging from 4.0-10.0% (w/v) sucrose, increasing in steps of 0.5% (w/v) sucrose were also provided. Panelists were asked to estimate sweetness by comparing the sweetness of the test solution to the sucrose standards. This was carried out by taking 3 sips of the test solution, followed by a sip of water, followed by 3 sips of sucrose standard followed by a sip of water, etc. Panelists were encouraged to estimate the sweetness to one decimal place, e.g., 6.8, 8.5. A five minute rest period was imposed between evaluating the test solutions. Panelists were also asked to rinse well and eat a cracker to reduce any potential carry over effects.
If a pseudo-first order breakdown reaction is assumed, a plot of logn percentage retention versus time (logn%RTN v. t) allows estimation of the half-life (t½) and rate constant (k) of sweetness loss under any given set of conditions. In so doing, the kinetics of monatin and aspartame sweetness loss may be summarized as follows in Table 25.

[4] = cola, sucrose 10% (control), monatin 80 ppm
[5] = lemon/lime carbonate, sucrose 10% (control), monatin 67 ppm

COC(=O)[C@H](Cc1ccccc1)NC(=O)[C@@H](N)CC(=O)O [Aspartame, aspartame] (H-Asp-Phe-OMe)
Aftertaste [1, 4]: Lingering sweetness
Flavor Profile [1, 4]: Sweet flavor, flatter
Mouthfeel [1, 4]: Thinner mouthfeel
Sweetness Profile [1, 4]: Delayed sweetness
Flavor Profile [1, 5]: Slightly lacking upfront.
Sweetness Profile [1, 5]: Sweetness onset quite
Average Score ([1]; cola, monatin 80 ppm): 3.3
Average Score ([1]; lemon/lime carbonate, monatin 67 ppm): 4.0
Comments (sensory evaluation) [2]: Balanced sweetness/acidity profile. Very
Sweetness Retained ([3]; after 100 days storage at pH 2.5 at 40° C.): 11%
Sweetness Retained ([3]; after 100 days storage at pH 3.0 at 40° C.): 31%
Sweetness Retained ([3]; after 100 days storage at pH 4.0 at 40° C.): 58%
Rate constant (k) of sweetness loss ([3]; pH 2.5, 40° C.): 0.013 day⁻¹
SEV ([3]; pH 2.5 buffer, day 0): 7.34 % sucrose
Retention of Sweetness ([3]; pH 2.5 buffer, day 1): 94.0%
SEV ([3]; pH 2.5 buffer, day 1): 6.90 % sucrose
Retention of Sweetness ([3]; pH 2.5 buffer, day 2): 92.6%
SEV ([3]; pH 2.5 buffer, day 2): 6.80 % sucrose
Retention of Sweetness ([3]; pH 2.5 buffer, day 3): 89.9%
SEV ([3]; pH 2.5 buffer, day 3): 6.60 % sucrose
Retention of Sweetness ([3]; pH 2.5 buffer, day 4): 85.7%
SEV ([3]; pH 2.5 buffer, day 4): 6.29 % sucrose
Retention of Sweetness ([3]; pH 2.5 buffer, day 7): 81.9%
SEV ([3]; pH 2.5 buffer, day 7): 6.01 % sucrose
Retention of Sweetness ([3]; pH 2.5 buffer, day 8): 81.5%
SEV ([3]; pH 2.5 buffer, day 8): 5.98 % sucrose
Retention of Sweetness ([3]; pH 2.5 buffer, day 9): 81.3%
SEV ([3]; pH 2.5 buffer, day 9): 5.97 % sucrose
Retention of Sweetness ([3]; pH 2.5 buffer, day 11): 79.8%
SEV ([3]; pH 2.5 buffer, day 11): 5.86 % sucrose
Retention of Sweetness ([3]; pH 2.5 buffer, day 50): 57.1%
SEV ([3]; pH 2.5 buffer, day 50): 4.19 % sucrose
Retention of Sweetness ([3]; pH 2.5 buffer, day 100): 10.9%
SEV ([3]; pH 2.5 buffer, day 100): 0.80 % sucrose
Rate constant (k) of sweetness loss ([3]; pH 3.0, 40° C.): 0.009 day⁻¹
SEV ([3]; pH 3.0 buffer, day 0): 7.15 % sucrose
Retention of Sweetness ([3]; pH 3.0 buffer, day 1): 96.5%
SEV ([3]; pH 3.0 buffer, day 1): 6.90 % sucrose
Retention of Sweetness ([3]; pH 3.0 buffer, day 2): 96.1%
SEV ([3]; pH 3.0 buffer, day 2): 6.87 % sucrose
Retention of Sweetness ([3]; pH 3.0 buffer, day 3): 92.3%
SEV ([3]; pH 3.0 buffer, day 3): 6.60 % sucrose
Retention of Sweetness ([3]; pH 3.0 buffer, day 4): 89.9%
SEV ([3]; pH 3.0 buffer, day 4): 6.43 % sucrose
Retention of Sweetness ([3]; pH 3.0 buffer, day 7): 86.3%
SEV ([3]; pH 3.0 buffer, day 7): 6.17 % sucrose
Retention of Sweetness ([3]; pH 3.0 buffer, day 8): 82.9%
SEV ([3]; pH 3.0 buffer, day 8): 5.93 % sucrose
Retention of Sweetness ([3]; pH 3.0 buffer, day 9): 83.1%
SEV ([3]; pH 3.0 buffer, day 9): 5.94 % sucrose
Retention of Sweetness ([3]; pH 3.0 buffer, day 11): 81.5%
SEV ([3]; pH 3.0 buffer, day 11): 5.83 % sucrose
Retention of Sweetness ([3]; pH 3.0 buffer, day 50): 65.9%
SEV ([3]; pH 3.0 buffer, day 50): 4.71 % sucrose
Retention of Sweetness ([3]; pH 3.0 buffer, day 100): 30.8%
SEV ([3]; pH 3.0 buffer, day 100): 2.20 % sucrose
Rate constant (k) of sweetness loss ([3]; pH 4.0, 40° C.): 0.005 day⁻¹
SEV ([3]; pH 4.0 buffer, day 0): 7.10 % sucrose
Retention of Sweetness ([3]; pH 4.0 buffer, day 3): 95.1%
SEV ([3]; pH 4.0 buffer, day 3): 6.75 % sucrose
Retention of Sweetness ([3]; pH 4.0 buffer, day 8): 87.8%
SEV ([3]; pH 4.0 buffer, day 8): 6.23 % sucrose
Retention of Sweetness ([3]; pH 4.0 buffer, day 11): 84.8%
SEV ([3]; pH 4.0 buffer, day 11): 6.02 % sucrose
Retention of Sweetness ([3]; pH 4.0 buffer, day 17): 81.0%
SEV ([3]; pH 4.0 buffer, day 17): 5.75 % sucrose
Retention of Sweetness ([3]; pH 4.0 buffer, day 24): 82.4%
SEV ([3]; pH 4.0 buffer, day 24): 5.85 % sucrose
Retention of Sweetness ([3]; pH 4.0 buffer, day 50): 74.5%
SEV ([3]; pH 4.0 buffer, day 50): 5.29 % sucrose
Retention of Sweetness ([3]; pH 4.0 buffer, day 100): 57.7%
SEV ([3]; pH 4.0 buffer, day 100): 4.10 % sucrose
half-life ([3]; pH 2.5, 40° C.): 55 days
half-life ([3]; pH 3.0, 40° C.): 75 days
half-life ([3]; pH 4.0, 40° C.): 140 days
